The values that follow are results of earlier work, collected in patent publication US20050084550A1, “Weight reduction and maintenance method for animals” (International Flora Technologies, priority 2001, published 2005).

In one data set the test system is food intake in mice. The conditions noted are these: appetite suppressant.
A further data set relates to food intake in chickens. The conditions noted are these: appetite suppressant.
The test system of another data set is food intake in rats. The note with it: appetite suppressant.

Take `CO[C@H]1[C@@H](OC)C[C@@H](O[C@@H]2O[C@H](CO)[C@@H](O)[C@H](O)[C@H]2O)/C(=C\C#N)[C@@H]1O` [simmondsin]: the food intake entry in the data set with food intake in mice, in the data set on food intake in chickens and with food intake in rats was “reduces food intake” each time. The solubility in hexane entry (hexane) is recorded as “not soluble”. The “solubility in jojoba oil” value (jojoba oil) is recorded as “not soluble”.
